Test results from patent US10857167B2, “Use of oligosaccharide compositions to enhance weight gain” (Children's Hospital Medical Center, priority 2015, dated 2020).
“Also recorded” adds a separate entry of the source.

Test system: small bowel of mice after ileocecal resection (ICR)
Test: Histologic markers of adaptation (villus height, crypt depth, bowel circumference, intestinal length) after ICR
Type: in vivo, mouse
Conditions: for crypt depth, median / intestinal length (corrected), median / small bowel circumference, median / villus height, median: 2′-FL supplemented ICR subgroup, interquartile range in brackets
Protocol: At the time of resection, tissue was obtained to prepare for histologic examination (FIG. 12). No differences in measurements of villus height, crypt depth, and bowel circumference were found at the time of resection. […] Crypts of both post-operative control and 2′ FL supplemented groups were deeper than those of pre-operative tissue. […] Only weights were obtained from non-operated control animals. Resected intestine from operated animals was measured for length then the site of small bowel transection was processed for small bowel contents, histology, and RNA. At the time of experimental completion, small bowel immediately proximal to the site of anastomosis was also harvested for small bowel contents, histology, and RNA from the operated group. Small bowel tissue samples for histology were cut in the longitudinal and transverse section, fixed with 4% paraformaldehyde, mounted in paraffin, and stained with hemotoxylin and eosin. Villous height, crypt depth, and bowel circumference were measured in a blinded manor. At least 10 well-oriented villus and crypt domains were assessed for each sample and two samples were averaged per mouse. The serosal circumference was measured twice per sample with two samples per mouse. The average value per mouse was determined. Measurements were performed using the Nikon Ti-Eclipse with NIS Element Advanced Research version 4.20 (Nikon Inc, NY). […] Intestinal length was compared across groups using the Wilcoxon rank-sum test as values were not normally distributed. Histologic count data was averaged per mouse across two samples and compared by the Wilcoxon rank-sum test. Weight data was analyzed using Stata version 13.0 (StataCorp LP, TX). Remaining morphometric and histologic data were analyzed using GraphPad Prism version 5 (GraphPad Software Inc, CA).

C[C@@H]1O[C@@H](O[C@H]2[C@H](O[C@H]3[C@H](O)[C@@H](O)C(O)O[C@@H]3CO)O[C@H](CO)[C@H](O)[C@@H]2O)[C@@H](O)[C@H](O)[C@@H]1O (some centres unmarked) [2′-FL, 2′-fucosyllactose]
crypt depth, median (postoperative day 21): 89 μm | intestinal length (corrected), median (postoperative day 21): 35.5 cm | small bowel circumference, median (postoperative day 21): 7,133 μm | villus height, median (postoperative day 21): 346 μm | crypt depth, median (postoperative day 56): 106 μm | intestinal length (corrected), median (postoperative day 56): 38.5 cm | small bowel circumference, median (postoperative day 56): 9,671 μm | villus height, median (postoperative day 56): 405 μm | histologic markers of adaptation (crypt depth, villus height, bowel circumference) compared to control (point of weight divergence, 21 days post-ICR): did not alter | crypt depth compared to control ICR (postoperative day 21): no difference | villus height compared to control ICR (postoperative day 21): no difference | intestinal length compared to control ICR (postoperative day 21 and day 56): no difference | villus height compared to control ICR (postoperative day 56): appeared longer; also recorded: trended toward a greater height | crypt depth compared to control ICR (postoperative day 56 (8 weeks)): increased; also recorded: significantly deeper | crypt depth compared to control ICR (postoperative day 56 (8 weeks), listed as 2′ Fl): significantly greater | crypt depth compared to control ICR (postoperative day 56 (8 weeks), listed as 2′FL): significantly greater | bowel circumference compared to control ICR (postoperative day 56 (Example 2)): no significant difference | villus height compared to control ICR (postoperative day 56, listed as 2′-Fl): appeared longer | duration of the acute histologic response to ICR compared to control (postoperative day 56 plotted alongside day 21): sustains the acute histologic response over a longer time period; also recorded: sustained the acute increases | small bowel circumference compared to control ICR (postoperative days 21 or 56): no statistical difference
